Data from ChEMBL document CHEMBL3430912, “GSK Tres Cantos Anti-Kinetoplastid Screening (TCAKS) Data”.
pIC50: −log10 of the molar value.

Experiments:
Trypanosoma cruzi [1] = experiment: GSK_TCAKS: pIC50 Trypanosoma cruzi viability assay using beta-GAL activity. This assay was run at single shot at 5uM compound concentration per well. The biological reagents consisted of NIH-3T3 host cells and trypomastigotes parasitic cells; both cell types were set to a 3.3 * 10^5 cells/mL dilution in assay DMEM by means of a CASY cell counter device using a 60um capillary. 6 uL of the mixture were dispensed per well (about 1 * 10^3 host-cells and 1 * 10^3 parasites) with a Multidrop Combi dispenser. […] In all wells, the percentage of DMSO never exceeded 0.5%. Plates incubated for four days at 37C, 5% CO2. The substrate used for the assay fluorescence intensity (FLINT) readout was resorufin-beta-D-galactopiranoside (Sigma-Aldrich) at 5uM per well. It was diluted in PBS supplemented with the soft detergent Igepal (Fluka).; assay type: functional, organism-based, Mus musculus; conditions: Tulahuen, NIH3T3
Trypanosoma cruzi [2] = experiment: (§1) GSK_TCAKS: pIC50 Trypanosoma cruzi Imaging: Infected Cells. […] Cells were then washed once with PBS before infection. T. cruzi trypomastigotes, collected at days 5 to 8 after infection from LLC-MK2 parasite infected cultures, were allowed to swim out for 4h at 37C from a centrifuged pellet (2,500 rpm/10 min/room temperature). Trypomastigotes were then collected and counted in a CASY Cell Counter. Trypomastigotes, in supplemented DMEM, were added to H9c2 cultures in a multiplicity of infection of 1 and incubated for 18 h. Cells were washed once with PBS before incubation of the infected H9c2 monolayer with trypsin (Life-Technologies) to detach cells from the flask. Cells were counted in a CASY Cell Counter using a 150 um capillary and their density set at 5 * 10^4 cells per mL in supplemented assay DMEM. Infected H9c2 were dispensed into 384-well poly-lysine coated assay plates at 50uL per well using a Multidrop Combi dispenser. After seeding them, the plates were incubated at 37C, 5% CO2 for 72h. Cultures were then fixed and stained by addition of 50 uL of a solution containing 8% formaldehyde and 4 uM DRAQ5 DNA dye (BioStatus, UK) per well. […] Five images were collected per well for reliable statistical analysis. Automated image analysis was performed with a script developed on Acapella High Content Imaging and Analysis Software (PerkinElmer). Output: percentage of infected cells per well as a second infection marker.; assay type: functional, organism-based, Rattus norvegicus; conditions: H9c2, 4 h
Trypanosoma cruzi [3] = experiment: GSK_TCAKS: pIC50 Trypanosoma cruzi Imaging: Amastigotes/Cell. […] Cells were then washed once with PBS before infection. T. cruzi trypomastigotes, collected at days 5 to 8 after infection from LLC-MK2 parasite infected cultures, were allowed to swim out for 4h at 37C from a centrifuged pellet (2,500 rpm/10 min/room temperature). Trypomastigotes were then collected and counted in a CASY Cell Counter. Trypomastigotes, in supplemented DMEM, were added to H9c2 cultures in a multiplicity of infection of 1 and incubated for 18 h. Cells were washed once with PBS before incubation of the infected H9c2 monolayer with trypsin (Life-Technologies) to detach cells from the flask. Cells were counted in a CASY Cell Counter using a 150 um capillary and their density set at 5 * 10^4 cells per mL in supplemented assay DMEM. Infected H9c2 were dispensed into 384-well poly-lysine coated assay plates at 50uL per well using a Multidrop Combi dispenser. After seeding them, the plates were incubated at 37C, 5% CO2 for 72h. Cultures were then fixed and stained by addition of 50 uL of a solution containing 8% formaldehyde and 4 uM DRAQ5 DNA dye (BioStatus, UK) per well. […] Five images were collected per well for reliable statistical analysis. Automated image analysis was performed with a script developed on Acapella High Content Imaging and Analysis Software (PerkinElmer). Output: number of amastigotes per cell as infection level measurement.; assay type: functional, organism-based, Rattus norvegicus; conditions: H9c2, 4 h
Trypanosoma cruzi [4] = experiment: as §1, with “H2C9” for “Trypanosoma cruzi”, “H9c2 Host Cardiomyocytes.” for “Infected Cells.”, “Number” for “percentage”, “H9c2 Host Cardiomyocytes nuclei to determine drug-related cytotoxicity.” for “infected cells per well as a second infection marker.”; assay type: functional, organism-based, Rattus norvegicus; conditions: H9c2, 4 h
Leishmania donovani [5] = experiment: GSK_TCAKS: pIC50 Leishmania donovani viability assay using fluorescence intensity. Assay plates (1536-well) were prepared by adding 30nL per well of compound. For single shot assay, the final compound concentration was 5uM. […] Briefly, eGFP LdBOB axenic amastigotes were harvested, fixed and counted in a CASY cell counter (Roche-Applied Science). A final concentration of 1.5 * 10^5 cells per well were prepared in amastigote media containing 500 U/mL penicillin/streptomycin (Invitrogen) and 6uL was dispensed to each experimental well using a Multidrop Combi dispenser (Thermo Scientific). 6uL of assay media was dispensed to control columns used as reference for 100% compound response. Following incubation for 72 h at 37C, 5% CO2, 2 uL of resazurin was added to each well at a final concentration of 0.5 mM in phosphate buffered saline (PBS) with IGEPAL (Sigma-Aldrich), 0.05% (v/v).; assay type: functional, organism-based
Leishmania donovani [6] = experiment: GSK_TCAKS: pIC50 Leishmania donovani Imaging: Infected Macrophages. Assay plates (384-well) were prepared by adding 250nL of compound to each well. For single shot assay, the final compound concentration was 5 uM. […] Automated image analysis was performed with a script developed on Acapella High Content Imaging and Analysis Software (PerkinElmer). Output: Percent of infected macrophage cells were reported for each well.; assay type: functional, organism-based, Homo sapiens; conditions: THP-1
Leishmania donovani [7] = experiment: GSK_TCAKS: pIC50 Leishmania donovani Imaging: Amastigotes/Macrophages. Assay plates (384-well) were prepared by adding 250nL of compound to each well. For single shot assay, the final compound concentration was 5 uM. […] Automated image analysis was performed with a script developed on Acapella High Content Imaging and Analysis Software (PerkinElmer). Output: Average number of amastigotes per macrophage cell were reported for each well.; assay type: functional, organism-based, Homo sapiens; conditions: THP-1
Leishmania donovani [8] = experiment: GSK_TCAKS: pIC50 Leishmania donovani Imaging: THP-1 Host Macrophages. Assay plates (384-well) were prepared by adding 250nL of compound to each well. For single shot assay, the final compound concentration was 5 uM. […] Automated image analysis was performed with a script developed on Acapella High Content Imaging and Analysis Software (PerkinElmer). Output: THP-1 cell count were reported for each well.; assay type: functional, organism-based, Homo sapiens
[9] = system: Trypanosoma brucei brucei; experiment: GSK_TCAKS: pIC50 Trypanosoma brucei viability assay using fluorescence intensity. Assay plates (1536-well) were prepared by dispensing 25nL of compound solution per well using an Echo acoustic dispenser (Labcyte).; assay type: functional, organism-based; conditions: Lister 427, 2 h
[10] = system: Trypanosoma brucei brucei; experiment: GSK_TCAKS: pIC50 Trypanosoma brucei viability assay using luminiscence. Assay plates (1536-well) were prepared. T. brucei cultures were harvested and counted in a CASY cell counter. A parasite suspension was prepared at a final concentration of 5 * 10^4 cells/mL in complete HMI9 medium and 6uL was dispensed to all wells containing compounds using a Multidrop Combi dispenser. 6uL of HMI9 media with 0.4% DMSO were dispensed to control columns. Plates were incubated for 24 h at 37C, 5% CO2 then tempered for 10 min at room temperature. ATP content was quantified by adding 4 uL of CellTiter-Glo Reagent (Promega) according to the manufacturer's instructions. Luminescence was measured using a ViewLux.; assay type: functional, organism-based; conditions: Lister 427, CASY
[11] = GSK_TCAKS: pIC50 HepG2 human cell line viability assay using luminiscence. […] Seeding density was checked to ensure that new mono-layers were not more than 50% confluent at the time of harvesting. Cell suspension was added to 500 mL of the same medium at a final density of 1.2 * 10^5 cells/mL. This cell suspension was dispensed (25 uL, 3000 cells per well) into 384-well clear-bottom plates using a Multidrop Combi dispenser. Prior to addition of the cell suspension, the screening compounds (250 nL) were pre-dispensed into the plates with an Echo liquid handler. Plates were incubated for 48 h at 37C, 5% CO2. After incubation, plates equilibrated at room temperature for 30 min before proceeding to develop the luminescent signal. The signal developer, CellTiter-Glo Reagent, was allowed to equilibrate at room temperature for 30 min and added to the plates (25uL per well) using a Multidrop Combi dispenser. Plates were left for 10 min at room temperature for stabilization and then read using a ViewLux.; assay type: toxicity, cell-based
NIH3T3 = experiment: GSK_TCAKS: pIC50 NIH 3T3 cell line viability assay using luminiscence. Tissue culture surface treated assay plates (1536-well) were used. […] The 100% cells survival control was determined exposing the host-cells to a 0.5% DMSO concentration, whereas the 100% toxicity control was achieved by seeding the cells in presence of Amphotericin B at 50uM. Plates were incubated for four days at 37C, 5% CO2. The assay readout was developed by addition of 5uL of CellTiter-Glo Reagent following the manufacturer's instructions. Luminiscence was measured using a ViewLux.; assay type: functional, cell-based; conditions: Mus musculus, NIH3T3, 96 h
[12] = molecular target: Sterol 14-alpha demethylase (Trypanosoma cruzi (strain CL Brener), UniProt Q7Z1V1); experiment: GSK_TCAKS: pIC50 CYP51 from Trypanosoma cruzi.; assay type: functional
Chain of Sterol 14-alpha demethylase (Q7Z1V1 whole entry): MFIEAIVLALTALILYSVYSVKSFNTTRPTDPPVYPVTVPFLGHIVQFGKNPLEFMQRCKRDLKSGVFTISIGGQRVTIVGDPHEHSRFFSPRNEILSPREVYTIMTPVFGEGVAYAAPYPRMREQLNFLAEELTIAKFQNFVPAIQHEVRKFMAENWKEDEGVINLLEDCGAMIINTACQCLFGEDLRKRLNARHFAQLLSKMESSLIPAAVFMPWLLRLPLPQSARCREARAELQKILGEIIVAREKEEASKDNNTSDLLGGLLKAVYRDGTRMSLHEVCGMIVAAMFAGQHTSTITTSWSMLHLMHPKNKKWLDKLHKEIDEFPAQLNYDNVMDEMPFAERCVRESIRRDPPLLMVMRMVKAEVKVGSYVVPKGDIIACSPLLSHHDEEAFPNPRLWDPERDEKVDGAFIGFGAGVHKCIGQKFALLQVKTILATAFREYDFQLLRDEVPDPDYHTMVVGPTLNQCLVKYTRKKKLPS

Row | SMILES | pIC50 (Trypanosoma cruzi [1]) | pIC50 (Trypanosoma cruzi [2]) | pIC50 (Trypanosoma cruzi [3]) | pIC50 (Trypanosoma cruzi [4]) | pIC50 (Leishmania donovani [5]) | pIC50 (Leishmania donovani [6]) | pIC50 (Leishmania donovani [7]) | pIC50 (Leishmania donovani [8]) | pIC50 [9] | pIC50 [10] | IC50 at 48 h [11] [µM] | pIC50 (NIH3T3) | pIC50 [12]
1 | COc1ccc(C)cc1-c1csc(NC(=O)C(C)n2ccnc2)n1 (stereo not given) | 7.15 | 7.00 | 7.00 | < 4.30 | 5.50 | < 4.30 | < 4.30 | < 4.30 | 4.60 | < 4.40 | > 100 | 4.30 | 7.40
2 | CC(C)Oc1cccc(N2CCC(C(=O)N3CCCN(C(C)C)CC3)CC2)c1 | 5.90 | 6.20 | 6.60 | < 4.30 | < 4.30 | < 4.30 | < 4.30 | < 4.30 | < 4.40 | < 4.40 | > 100 | 4.50 | < 4.00
3 | CCN(Cc1ccncc1)Cc1ccc(NC(=O)c2cc(-c3ccc(F)cc3)n[nH]2)cc1 | 6.40 | 6.60 | 6.60 | < 4.30 | 4.80 | < 4.30 | 5.60 | 5.30 | < 4.40 | < 4.40 | > 100 | 5.00 | 7.10
4 | COc1cccc(CCNC(=O)C(c2cn[nH]c2)N2CCN(c3ccc(Cl)cc3)CC2)c1 (stereo not given) | 7.70 | 7.70 | 7.80 | 4.40 | 4.90 | 4.70 | 5.00 | 4.60 | 4.70 | 4.50 | 50.1 | 4.50 | 7.20
5 | COc1ccc2nc(N(Cc3cccnc3)C(=O)C3CCC3)sc2c1 | 6.90 | 6.90 | 7.00 | < 4.30 | 4.90 | < 4.30 | 4.30 | < 4.30 | 4.70 | 4.40 | > 100 | 4.30 | 7.20
6 | CC(C)c1cc(C(=O)N2CCCC(c3cc4ncccc4[nH]3)C2)on1 (stereo not given) | 5.70 | 5.50 | 6.00 | < 4.30 | < 4.30 | < 4.30 | < 4.30 | < 4.30 | < 4.40 | < 4.40 | > 100 | 4.70 | 4.30
7 | O=C(NCc1nnc2n1CCCCC2)c1ccc(-c2ccc(F)cc2)o1 | 5.85 | 5.80 | 6.00 | < 4.30 | < 4.30 | < 4.30 | < 4.30 | < 4.30 | 6.90 | 6.60 | > 100 | < 4.30 | 4.10
8 | Fc1ccc(O[C@H]2C[C@H](NCc3cccc4cn[nH]c34)C2)cc1C(F)(F)F | 6.10 | 6.70 | 6.80 | 5.10 | 4.70 | 5.10 | 5.10 | 5.00 | 5.10 | 5.00 | 25.1 | 4.90 | 6.90
9 | c1cc(-c2ncc(-c3ccn[nH]3)s2)ccn1 | 6.75 | 6.60 | 6.60 | < 4.30 | < 4.30 | < 4.30 | 5.00 | < 4.30 | 4.70 | < 4.40 | > 100 | < 4.30 | 7.40
10 | CNc1c(C(N)=O)c(-c2ccc3scnc3c2)nn1CC(F)(F)F | 6.90 | 6.60 | 6.80 | < 4.30 | < 4.30 | < 4.30 | < 4.30 | < 4.30 | 4.50 | < 4.40 | > 100 | 4.70 | < 4.00
